Source: paper PMC2034084, “Pharmacokinetics and binding of the bioreductive probe for hypoxia, NITP: effect of route of administration” (British Journal of Cancer, 1995)
Where “and” joins values, the source holds several entries; their conditions need not be identical. Equal values may be shown once.

Assays:
[1] = Solubility of NITP in water and in Molecusol HPB solution; format: physicochemical; details: Molecusol HPB solution vs water
Excerpt: (§1) Britsh Journal of Cancer (1995) 72, 1462-1468 ft (32) 1995 Stockton Press All rights reserved 0007-0920/95 $12.00 Pharmacokinetics and binding of the bioreductive probe for hypoxia, NITP: effect of route of administration RJ Hodgkiss, MRL Stratford, MF Dennis and SA Hill Gray Laboratory Cancer Research Trust, P.O. Box 100, Mount Vernon Hospital, Northwood, Middlesex HA6 2JR, UK. Summary The novel compound 7-[4'-(2-nitroimidazol-l-yl)-butyl]-theophylline (NITP) can be used as an immunologically detectable probe for hypoxic cells. Because of the limited water solubility of NITP, it has been administered dissolved in peanut oil with 10% dimethylsulphoxide (DMSO). A new aqueous formulation has been devised, based on a 50% solution of a modified P-cyclodextrin (Molecusol HPB), which increases the water solubility of NITP 10-fold. […] Binding of the marker to hypoxic cells within tumours was also measured after the different routes of administration. […] The novel compound 7-[4'-(2-nitroimidazol-1-yl)-butyl]- theophylline (NITP), has been described as an immuno- logically detectable bioreductive probe for hypoxic cells (Hodgkiss et al., 1991), and appears to offer promise as a method of quantifying tumour hypoxia in vivo. […]

CaNT tumours = test: Bound adducts of NITP in cells from tumours, fluorescent immunochemical staining and flow cytometry; format: in vivo, CBA mice; details: for proportion of total cells in the region of bound NITP metabolites: control region 1%
Excerpt: Britsh Journal of Cancer (1995) 72, 1462-1468 ft (32) 1995 Stockton Press All rights reserved 0007-0920/95 $12.00 Pharmacokinetics and binding of the bioreductive probe for hypoxia, NITP: effect of route of administration RJ Hodgkiss, MRL Stratford, MF Dennis and SA Hill Gray Laboratory Cancer Research Trust, P.O. Box 100, Mount Vernon Hospital, Northwood, Middlesex HA6 2JR, UK. Summary The novel compound 7-[4'-(2-nitroimidazol-l-yl)-butyl]-theophylline (NITP) can be used as an immunologically detectable probe for hypoxic cells. Because of the limited water solubility of NITP, it has been administered dissolved in peanut oil with 10% dimethylsulphoxide (DMSO). A new aqueous formulation has been devised, based on a 50% solution of a modified P-cyclodextrin (Molecusol HPB), which increases the water solubility of NITP 10-fold. The pharmacokinetics of NITP in plasma and tumours have been compared following oral and intraperitoneal (i.p.) administration of the NITP in Molecusol, i.p. administration of NITP dissolved in peanut oil + 10% DMSO and injection of a near-saturated aqueous solution of the drug intravenously via the tail vein or i.p. or directly into the tumours. Binding of the marker to hypoxic cells within tumours was also measured after the different routes of administration. The Molecusol vehicle was unexpectedly toxic when administered i.p., but there was no toxicity from NITP dissolved in Molecusol when administered orally. […] Binding of NITP within tumours has also been observed following direct injection of the drug, with minimal whole-body exposure to NITP. […] In particular, bioreductive drugs are specifically activated in hypoxic cells and can target those cells that are resistant to radiotherapy (for review see Stratford, 1992). Numerous methods have been proposed for measuring tumour hypoxia (for review see Hodgkiss and Wardman, 1992), in the hope that this would allow treatment to be optimised for individual patients on the basis of the oxygen status of their tumours. In particular, the hypoxia-specific binding of isotopically labelled 2-nitroimidazoles has been used to identify hypoxic cells in tumours, (e.g. Chapman et al., 1982; Franko and Chapman, 1982; Garrecht and Chap- man, 1983; Raleigh et al., 1985; Rasey et al., 1985; Urtasun et al., 1986). […] The novel compound 7-[4'-(2-nitroimidazol-1-yl)-butyl]- theophylline (NITP), has been described as an immuno- logically detectable bioreductive probe for hypoxic cells (Hodgkiss et al., 1991), and appears to offer promise as a method of quantifying tumour hypoxia in vivo. […]

[2] = Plasma and tumour pharmacokinetics of NITP by HPLC after different routes and vehicles; format: in vivo, CBA mice; details: for AUC s.e.m. Tumour: CaNT tumour
Excerpt: Britsh Journal of Cancer (1995) 72, 1462-1468 ft (32) 1995 Stockton Press All rights reserved 0007-0920/95 $12.00 Pharmacokinetics and binding of the bioreductive probe for hypoxia, NITP: effect of route of administration RJ Hodgkiss, MRL Stratford, MF Dennis and SA Hill Gray Laboratory Cancer Research Trust, P.O. Box 100, Mount Vernon Hospital, Northwood, Middlesex HA6 2JR, UK. Summary The novel compound 7-[4'-(2-nitroimidazol-l-yl)-butyl]-theophylline (NITP) can be used as an immunologically detectable probe for hypoxic cells. Because of the limited water solubility of NITP, it has been administered dissolved in peanut oil with 10% dimethylsulphoxide (DMSO). A new aqueous formulation has been devised, based on a 50% solution of a modified P-cyclodextrin (Molecusol HPB), which increases the water solubility of NITP 10-fold. The pharmacokinetics of NITP in plasma and tumours have been compared following oral and intraperitoneal (i.p.) administration of the NITP in Molecusol, i.p. administration of NITP dissolved in peanut oil + 10% DMSO and injection of a near-saturated aqueous solution of the drug intravenously via the tail vein or i.p. or directly into the tumours. Binding of the marker to hypoxic cells within tumours was also measured after the different routes of administration. The Molecusol vehicle was unexpectedly toxic when administered i.p., but there was no toxicity from NITP dissolved in Molecusol when administered orally. […] Binding of NITP within tumours has also been observed following direct injection of the drug, with minimal whole-body exposure to NITP. […] In particular, bioreductive drugs are specifically activated in hypoxic cells and can target those cells that are resistant to radiotherapy (for review see Stratford, 1992). Numerous methods have been proposed for measuring tumour hypoxia (for review see Hodgkiss and Wardman, 1992), in the hope that this would allow treatment to be optimised for individual patients on the basis of the oxygen status of their tumours. In particular, the hypoxia-specific binding of isotopically labelled 2-nitroimidazoles has been used to identify hypoxic cells in tumours, (e.g. Chapman et al., 1982; Franko and Chapman, 1982; Garrecht and Chap- man, 1983; Raleigh et al., 1985; Rasey et al., 1985; Urtasun et al., 1986). Immunological detection of 2-nitroimidazoles has been described (Raleigh et al., 1987; Hodgkiss et al., 1991; Lord et al., 1993) and avoids the administration of radioactive labels, which would be particularly desirable for clinical measurement of tumour hypoxia. The novel compound 7-[4'-(2-nitroimidazol-1-yl)-butyl]- theophylline (NITP), has been described as an immuno- logically detectable bioreductive probe for hypoxic cells (Hodgkiss et al., 1991), and appears to offer promise as a method of quantifying tumour hypoxia in vivo. However, the water solubility of NITP is only c. 2 x 10^-3 M at 20'C and its administration in vivo, dissolved in water or saline, would require an inconveniently large volume of drug solution to be given to achieve an adequate dose level of c. 0.45 lsmol g-'. To circumvent this problem, NITP has been administered in vivo as a solution in peanut oil + 10% DMSO (Hodgkiss et al., 1991). While this formulation has given satisfactory results in the tumour models used, it is clearly unsuitable for clinical administration, and an aqueous preparation of the drug would be preferable. ,-Cyclodextrin consists of seven glucose units joined into a ring, taking up the shape of a three-dimensional torus with a hydrophobic cavity. 'Guest' molecules of a suitable size can fit into the central cavity, and the inclusion complex thus formed can increase the aqueous solubility of lipophilic com- pounds (Szejtli, 1982). […] This paper describes the use of a modified 2-hydroxy-propyl-p-cyclodextrin (Mole- cusol HPB) as an agent for preparing aqueous solutions of NITP. […]

[3] = Toxicity and tolerability after oral or i.p. administration; format: in vivo, mice
Excerpt: as §1

[4] = 0.45 umol g-1 i.p. in peanut oil + 10% DMSO
[5] = 0.45 and 0.09 umol g-1 oral in Molecusol
[6] = Molecusol HPB i.p. 0.09 umol g-1
[7] = Molecusol HPB i.p. 0.45 umol g-1
[8] = Molecusol HPB oral 0.09 umol g-1
[9] = Molecusol HPB oral 0.45 umol g-1, pooled data for three experiments
[10] = Molecusol HPB oral (footnote a), dose printed 0
[11] = Peanut oil/DMSO i.p. 0.45 umol g-1
[12] = plasma, Molecusol HPB i.p. 0.09 umol g-1
[13] = plasma, Molecusol HPB i.p. 0.45 umol g-1
[14] = plasma, Molecusol HPB oral 0.09 umol g-1
[15] = plasma, Molecusol HPB oral 0.45 umol g-1, pooled data for three experiments
[16] = plasma, Molecusol HPB oral (footnote a), dose printed 0
[17] = plasma, Peanut oil/DMSO i.p. 0.45 umol g-1
[18] = plasma, Saline i.p. 0.015 umol g-1
[19] = plasma, Saline i.t. 0.006 umol g-1
[20] = saline i.v. 0.015 umol g-1, non-linear regression, biphasic curve

Cn1c(=O)c2c(ncn2CCCCn2ccnc2[N+](=O)[O-])n(C)c1=O [NITP, 7-[4'-(2-nitroimidazol-l-yl)-butyl]-theophylline]
improvement in the solubility of NITP over that in water alone [1]: 10 fold and ~ 10 fold | binding of NITP in tumours (CaNT tumours; direct injection of NITP saline solution into tumours): substantial binding | binding of NITP in tumours (CaNT tumours; i.v. injection of 2 x 10^-3 M solution in saline): little binding | proportion of total cells in the region of bound NITP metabolites (CaNT tumours; tumour excised 30 min after oral 0.09 umol g-1 NITP in Molecusol): 17% | proportion of total cells in the region of bound NITP metabolites (CaNT tumours; tumour excised 90 min after oral 0.45 umol g-1 NITP in Molecusol): 19% | peak plasma concentration relative to that predicted from a uniform distribution of the compound administered [2, 4]: about 20% | time plasma remains at plateau level [2, 4]: about 50 min | time to reach plasma plateau level [2, 4]: 10 to 15 min | peak plasma level relative to that expected from a uniform distribution of the drug [2, 5]: about 20% | plasma clearance half-life [2, 5]: 22 min | AUC s.e.m. Tumour [2, 6]: 2.01 M min (x 103) | AUC s.e.m. Tumour [2, 7]: 21.2 M min (x 103) | AUC s.e.m. Tumour [2, 8]: 0.310 M min (x 103) | AUC s.e.m. Tumour [2, 9]: 4.09 M min (x 103) | AUC s.e.m. Tumour [2, 10]: 4.62 M min (x 103) | AUC s.e.m. Tumour [2, 11]: 6.72 M min (x 103) | AUC s.e.m. Tumour ([2]; Saline i.t. 0.006 umol g-1): 2.64 M min (x 103) | AUC s.e.m. Plasma [2, 6]: 2.54 M min (x 103) | AUC s.e.m. Plasma [2, 7]: 27.4 M min (x 103) | AUC s.e.m. Plasma [2, 8]: 0.543 M min (x 103) | AUC s.e.m. Plasma [2, 9]: 5.41 M min (x 103) | AUC s.e.m. Plasma [2, 10]: 5.73 M min (x 103) | AUC s.e.m. Plasma [2, 11]: 9.26 M min (x 103) | AUC s.e.m. Plasma ([2]; Saline i.p. 0.015 umol g-1): 0.100 M min (x 103) | AUC s.e.m. Plasma ([2]; Saline i.t. 0.006 umol g-1): 0.054 M min (x 103) | AUC s.e.m. Plasma ([2]; Saline i.v. 0.005 umol g-1): 0.041 M min (x 103) | AUC s.e.m. Plasma ([2]; Saline i.v. 0.015 umol g-1): 0.177 M min (x 103) | Half life s.e.m. [2, 12]: 19.7 min | Peak concentration + s.e.m. [2, 12]: 58.2 µM | Half life s.e.m. [2, 13]: 36.6 min | Peak concentration + s.e.m. [2, 13]: 401 µM | Half life s.e.m. [2, 14]: 22.4 min | Peak concentration + s.e.m. [2, 14]: 16.2 µM | Half life s.e.m. [2, 15]: 26.5 min | Peak concentration + s.e.m. [2, 15]: 104 µM | Half life s.e.m. [2, 16]: 22.3 min | Peak concentration + s.e.m. [2, 16]: 127 µM | Half life s.e.m. [2, 17]: 33.1 min | Peak concentration + s.e.m. [2, 17]: 96.3 µM | Half life s.e.m. [2, 18]: 7.84 min | Peak concentration + s.e.m. [2, 18]: 6.78 µM | Half life s.e.m. [2, 19]: 9.79 min | Peak concentration + s.e.m. [2, 19]: 3.68 µM | Half life s.e.m. ([2]; plasma, Saline i.v. 0.005 umol g-1): 8.86 min | Peak concentration ([2]; plasma, Saline i.v. 0.005 umol g-1, 1 min, n = 1): 4.06 µM | Half life s.e.m. ([2]; plasma, Saline i.v. 0.015 umol g-1, linear fit to terminal elimination phase): 9.64 min | volume of distribution ([2]; saline i.v. 0.015 umol g-1, non-linear regression data): 0.63 mL/g | distribution phase half-life [2, 20]: 1.7 min | elimination half-life [2, 20]: 9.2 min | factor by which plasma concentrations lie below the tumour concentration ([2]; single i.t. injection of 0.1 ml 2 x 10^-3 M NITP): ≥ 20 | toxicity ([3]; NITP in Molecusol i.p., dose reduced by a factor of 5 (0.09 umol g-1)): no toxicity | tolerability ([3]; oral, up to 0.9 umol g-1 NITP in Molecusol (20 umol g-1)): well tolerated with no obvious toxicity
